The results in this text go back to patent US8895745B2, “Bicyclic heterocyclic compounds as FGFR inhibitors” (Astex Therapeutics Limited, priority 2006, dated 2014).

Structures can show the parent of a compound that is named as a salt.

FGFR3, sequence (P22607 23-806): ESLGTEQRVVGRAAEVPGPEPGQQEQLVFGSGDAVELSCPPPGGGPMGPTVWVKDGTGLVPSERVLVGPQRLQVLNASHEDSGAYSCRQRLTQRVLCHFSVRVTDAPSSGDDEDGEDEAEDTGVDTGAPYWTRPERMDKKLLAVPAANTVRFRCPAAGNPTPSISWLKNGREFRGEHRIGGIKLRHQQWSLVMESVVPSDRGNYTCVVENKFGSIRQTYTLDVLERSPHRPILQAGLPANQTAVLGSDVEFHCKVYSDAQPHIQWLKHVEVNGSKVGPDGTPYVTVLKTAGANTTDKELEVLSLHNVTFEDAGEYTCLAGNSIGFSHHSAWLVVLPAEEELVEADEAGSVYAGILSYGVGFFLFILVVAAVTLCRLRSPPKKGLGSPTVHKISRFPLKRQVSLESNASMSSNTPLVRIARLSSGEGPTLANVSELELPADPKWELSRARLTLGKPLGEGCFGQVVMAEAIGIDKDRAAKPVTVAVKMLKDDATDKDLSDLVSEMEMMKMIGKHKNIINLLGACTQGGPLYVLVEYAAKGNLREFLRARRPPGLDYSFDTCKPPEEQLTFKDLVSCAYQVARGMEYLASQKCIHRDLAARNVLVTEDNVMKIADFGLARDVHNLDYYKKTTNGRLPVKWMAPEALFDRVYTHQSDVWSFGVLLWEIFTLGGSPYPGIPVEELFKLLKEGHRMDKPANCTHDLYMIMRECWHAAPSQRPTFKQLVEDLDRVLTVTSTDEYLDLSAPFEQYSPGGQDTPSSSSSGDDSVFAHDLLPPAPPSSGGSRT

For the first experiment, the system named is LP-1 cell line. Nature of the experiment: Cell-based pERK ELISA method, LP-1 cells. To be noted: Homo sapiens, LP-1, read-out: IC50 less than 1 μM or at least 50% inhibition at a concentration of 1 μM, LP-1 pERK ELISA. For orientation: ELISA stands for enzyme-linked immunosorbent assay.
Protocol: LP-1 or JIM-1 multiple myeloma cells were seeded in 96 well plates at 1×10^6 cells/ml in 200 ul per well in serum free media. […] Cells were incubated for 16 h at 37° C. prior to the addition of a test compound for 30 minutes. Test compounds were administered at a 0.1% final DMSO concentration. […] ELISA plates and standards were prepared according o the standard DuoSet protocols and the relative amounts of pERK to total ERK in each sample calculated according to the standard curve.
In particular, compounds of the invention were tested against the LP-1 cell line (DSMZ no.: ACC 41) derived from human multiple myeloma.
Consider `O=C(NCC(F)(F)F)Nc1cccc(-c2cnc3cc(-c4nnco4)ccn23)c1` [Example 330, 1-[3-(7-[1,3,4]Oxadiazol-2-yl-imidazo[1,2-a]pyridin-3-yl)-phenyl]-3-(2,2,2-trifluoro-ethyl)-urea], for which the IC50 was under 1 µM.
The same measure, in the same setting: for `Cn1c(-c2ccn3c(-c4cccc(NC(=O)NCC(F)(F)F)c4)cnc3c2)n[nH]c1=S` [Example 332, 1-{3-[7-(4-Methyl-5-thioxo-4,5-dihydro-1H-[1,2,4]triazol-3-yl)-imidazo[1,2-a]pyridin-3-yl]-phenyl}-3-(2,2,2-trifluoro-ethyl)-urea] the value was under 1 µM; for `O=C(NCC(F)(F)F)Nc1cccc(-c2cnc3cc(C4CC4)ccn23)c1` [Example 334, 1-[3-(7-Cyclopropyl-imidazo[1,2-a]pyridin-3-yl)-phenyl]-3-(2,2,2-trifluoro-ethyl)-urea Formate], under 1 µM; for `COc1ccn2c(-c3cccc(NC(=O)NCC(F)(F)F)c3)cnc2c1` [Example 336, 1-[3-(7-Methoxy-imidazo[1,2-a]pyridin-3-yl)-phenyl]-3-(2,2,2-trifluoro-ethyl)-urea Formate], under 1 µM.
With `CCOc1ccn2c(-c3cccc(NC(=O)NCC(F)(F)F)c3)cnc2c1` [Example 337, 1-[3-(7-Ethoxy-imidazo[1,2-a]pyridin-3-yl)-phenyl]-3-(2,2,2-trifluoro-ethyl)-urea Formate], the IC50 is under 1 µM.
The same measure, in the same setting: for `N#Cc1ccn2c(-c3cccc(NC(=O)NCC(F)(F)F)c3)cnc2c1` [Example 341, 1-[3-(7-Cyano-imidazo[1,2-a]pyridin-3-yl)-phenyl]-3-(2,2,2-trifluoro-ethyl)-urea] the value was under 1 µM; for `CNC(=O)/C=C/c1ccn2c(-c3cccc(NC(=O)NCC(F)(F)F)c3)cnc2c1` [Example 344, (E)-N-Methyl-3-(3-{3-[3-(2,2,2-trifluoro-ethyl)-ureido]-phenyl}-imidazo[1,2-a]pyridin-7-yl)-acrylamide], under 1 µM; for `CN(C)C(=O)/C=C/c1ccn2c(-c3cccc(NC(=O)NCC(F)(F)F)c3)cnc2c1` [Example 345, (E)-N,N-Dimethyl-3-(3-{3-[3-(2,2,2-trifluoro-ethyl)-ureido]-phenyl}-imidazo[1,2-a]pyridin-7-yl)-acrylamide], under 1 µM.
For `Cc1cc2ncc(-c3cccc(NC(=O)NCC(F)(F)F)c3)n2cc1Cl` [Example 346, 1-[3-(6-Chloro-7-methyl-imidazo[1,2-a]pyridin-3-yl)-phenyl]-3-(2,2,2-trifluoro-ethyl)-urea], the IC50 is under 1 µM.
Consider `Cc1nc(-c2ccn3c(-c4cccc(NC(=O)NCC(F)(F)F)c4)cnc3c2)cs1` [Example 348, 1-{3-[7-(2-Methyl-thiazol-4-yl)-imidazo[1,2-a]pyridin-3-yl]-phenyl}-3-(2,2,2-trifluoro-ethyl)-urea], for which the IC50 was under 1 µM.
Same read-out and setting: for `Cn1cc(-c2cnc3c(-c4cncc(NC(=O)NCC(F)(F)F)c4)cnn3c2)cn1` [Example 349, 1-{5-[6-(1-Methyl-1H-pyrazol-4-yl)-pyrazolo[1,5-a]pyrimidin-3-yl]-pyridin-3-yl}-3-(2,2,2-trifluoro-ethyl)-urea] the value was under 1 µM; for `CC(C)(O)c1ccc(-c2ccn3c(-c4cccc(NC(=O)NCC(F)(F)F)c4)cnc3c2)cn1` [Example 351, 1-(3-{7-[6-(1-Hydroxy-1-methyl-ethyl)-pyridin-3-yl]-imidazo[1,2-a]pyridin-3-yl}-phenyl)-3-(2,2,2-trifluoro-ethyl)-urea], under 1 µM.
On the same count and under the same terms, for `Cc1nc(C)n(-c2ccn3c(-c4cccc(NC(=O)NCC(F)(F)F)c4)cnc3c2)n1` [Example 414, 1-{3-[7-(3,5-Dimethyl-[1,2,4]triazol-1-yl)-imidazo[1,2-a]pyridin-3-yl]-phenyl}-3-(2,2,2-trifluoro-ethyl)-urea] the value was under 1 µM.

The same experiment, now with this note: Homo sapiens, LP-1, read-out: LP-1 pERK ELISA (μM).
Take `Cc1nnc(-c2ccn3c(-c4cccc(NC(=O)NCC(F)(F)F)c4)cnc3c2)o1` [Example 329, 1-{3-[7-(5-Methyl-[1,3,4]oxadiazol-2-yl)-imidazo[1,2-a]pyridin-3-yl]-phenyl}-3-(2,2,2-trifluoro-ethyl)-urea]: the IC50 was 0.143 µM.
Same read-out and setting: for `CSc1nnc(-c2ccn3c(-c4cccc(NC(=O)NCC(F)(F)F)c4)cnc3c2)o1` [Example 354, 1-{3-[7-(5-Methylsulfanyl-[1,3,4]oxadiazol-2-yl)-imidazo[1,2-a]pyridin-3-yl]-phenyl}-3-(2,2,2-trifluoro-ethyl)-urea] the value was 0.0157 µM; for `Cn1nnc(-c2ccn3c(-c4cccc(NC(=O)NCC(F)(F)F)c4)cnc3c2)n1` [Example 359, 1-{3-[7-(2-Methyl-2H-tetrazol-5-yl)-imidazo[1,2-a]pyridin-3-yl]-phenyl}-3-(2,2,2-trifluoro-ethyl)-urea], 0.033 µM; for `Cc1c(-c2ccn3c(-c4cccc(NC(=O)NCC(F)(F)F)c4)cnc3c2)ncn1C` [Example 374, 1-{3-[7-(1,5-Dimethyl-1H-imidazol-4-yl)-imidazo[1,2-a]pyridin-3-yl]-phenyl}-3-(2,2,2-trifluoro-ethyl)-urea], 0.0084 µM.
Take `Cn1cnc(-c2ccn3c(-c4cccc(NC(=O)NCC(F)(F)F)c4)cnc3c2)c1` [Example 375, 1-{3-[7-(1-Methyl-1H-imidazol-4-yl)-imidazo[1,2-a]pyridin-3-yl]-phenyl}-3-(2,2,2-trifluoro-ethyl)-urea]: the IC50 amounted to 0.022 µM.
The same measure, in the same setting: for `Cc1c(-c2ccn3c(-c4cccc(NC(=O)NCC(F)(F)F)c4)cnc3c2)nnn1C` [Example 378, 1-{3-[7-(1,5-Dimethyl-1H-[1,2,3]triazol-4-yl)-imidazo[1,2-a]pyridin-3-yl]-phenyl}-3-(2,2,2-trifluoro-ethyl)-urea formate] the value was 0.016 µM.
The same measure, in the same setting: for `O=C(NCC(F)(F)F)Nc1cccc(-c2cnc3cc(-c4nncs4)ccn23)c1` [Example 384, 1-[3-(7-[1,3,4]Thiadiazol-2-yl-imidazo[1,2-a]pyridin-3-yl)-phenyl]-3-(2,2,2-trifluoro-ethyl)-urea] the value was 0.019 µM.
Same read-out and setting: for `CC#Cc1ccn2c(-c3cccc(NC(=O)NCC(F)(F)F)c3)cnc2c1` [Example 396, 1-[3-(7-Prop-1-ynyl-imidazo[1,2-a]pyridin-3-yl)-phenyl]-3-(2,2,2-trifluoro-ethyl)-urea] the value was 0.065 µM.
With `Cc1nsc(-c2ccn3c(-c4cccc(NC(=O)NCC(F)(F)F)c4)cnc3c2)n1` [Example 399, 1-{3-[7-(3-Methyl-[1,2,4]thiadiazol-5-yl)-imidazo[1,2-a]pyridin-3-yl]-phenyl}-3-(2,2,2-trifluoro-ethyl)-urea], the IC50 was 0.022 µM.

The next experiment has as its target FGFR3 (Homo sapiens (Human), UniProt P22607). Nature of the experiment: FGFR3 in vitro kinase inhibitory activity assay (TRF, biotinylated Flt3 substrate). It is filed as biochemical. To be noted: % inhibition at 0.001 μM; read-out: FGFR3 IC50 or % inhibition. Here is the method:
Enzymes (from Upstate) were prepared at 2× final concentration in 1× kinase assay buffer (as described below). Enzymes were then incubated with test compounds, biotinylated Flt3 substrate (biotin—DNEYFYV) (Cell Signalling Technology Inc.) and ATP. The reaction was allowed to proceed for 3 hours (FGFR3) or 2.5 hrs (PDGFR-beta) at room temperature on a plate shaker at 900 rpm before being stopped with 20 μl of 35 mM EDTA, pH 8 (FGFR3) or 55 mM EDTA, pH 8 (PDGFR-beta). […] The plate was then read on a Packard Fusion plate reader in TRF mode.
Kinase Assay buffers were:
A: 50 mM HEPES pH 7.5, 6 mM MnCl2, 1 mM DTT, 0.1% TritonX-100
In general, inhibition refers to how much of the control response was suppressed. Turning to `Cc1c(-c2ccn3c(-c4cccc(NC(=O)NCC(F)(F)F)c4)cnc3c2)ncn1C` [Example 374, 1-{3-[7-(1,5-Dimethyl-1H-imidazol-4-yl)-imidazo[1,2-a]pyridin-3-yl]-phenyl}-3-(2,2,2-trifluoro-ethyl)-urea], the inhibition at 0.001 µM was determined as 64%.

The experiment is the same for the next values; noted with them: read-out: IC50 less than 1 μM or at least 50% inhibition of the FGFR3 activity at a concentration of 1 μM.
Turning to `Fc1ccc(-c2ccn3c(-c4ccc5[nH]ccc5c4)cnc3c2)cc1` [Example 70, 7-(4-Fluoro-phenyl)-3-(1H-indol-5-yl)-imidazo[1,2-a]pyridine formate salt], the IC50 is under 1000 nM.
On the same count and under the same terms, for `COc1ccc(-c2ccc3ncc(-c4cccc(NC(C)=O)c4)n3c2)cc1` [Example 100, N-{3-[6-(4-Methoxy-phenyl)-imidazo[1,2-a]pyridin-3-yl]-phenyl}-acetamide formate salt] the value was under 1000 nM; for `COc1cncc(-c2ccc3ncc(-c4cccc(NC(C)=O)c4)n3c2)c1` [Example 101, N-{3-[6-(5-Methoxy-pyridin-3-yl)-imidazo[1,2-a]pyridin-3-yl]-phenyl}-acetamide], under 1000 nM.
The same measure, in the same setting: for `Cc1nc(C)n(-c2ccn3c(-c4cccc(NC(=O)NCC(F)(F)F)c4)cnc3c2)n1` [Example 414, 1-{3-[7-(3,5-Dimethyl-[1,2,4]triazol-1-yl)-imidazo[1,2-a]pyridin-3-yl]-phenyl}-3-(2,2,2-trifluoro-ethyl)-urea] the value was under 1000 nM.

Staying with this experiment, now noted: read-out: IC50 less than 10 μM or at least 50% inhibition of the FGFR3 activity at a concentration of 10 μM.
Consider `Cc1nc(C)n(-c2ccn3c(-c4cccc(NC(=O)NCC(F)(F)F)c4)cnc3c2)n1` [Example 414, 1-{3-[7-(3,5-Dimethyl-[1,2,4]triazol-1-yl)-imidazo[1,2-a]pyridin-3-yl]-phenyl}-3-(2,2,2-trifluoro-ethyl)-urea], for which the IC50 is under 10000 nM.
